According to ChEMBL document CHEMBL1255278, “Caspofungin prolongs survival of transiently neutropenic rats with advanced-stage invasive pulmonary aspergillosis” (Antimicrob Agents Chemother, 2008):
≈ marks a conversion by molar mass, not a printed value.

How the values were obtained:
Rattus norvegicus [1] = assay: Renal toxicity in neutropenic rat assessed as blood urea nitrogen level in serum at 10 mg/kg/day, ip administered 72 hrs post infection for 10 days measured on day 13 (Rvb=5.8+/-0.4 mmol/l); format: organism-based; set-up: route intraperitoneal; details: in vivo
Rattus norvegicus [2] = assay: Hepatotoxicity in neutropenic rat assessed as ALAT level in serum at 4 mg/kg/day, ip administered 72 hrs post infection for 10 days measured on day 6 after infection (Rvb=43.9+/-7.9 U/l); format: toxicity, organism-based; set-up: route intraperitoneal; details: in vivo
Rattus norvegicus [3] = assay: Hepatotoxicity in neutropenic rat assessed as ASAT level in serum at 10 mg/kg/day, ip administered 72 hrs post infection for 3 days followed by 4 mg/kg/day, ip for 7 days measured on day 6 after infection (Rvb=51.2+/-9.4 U/l); format: toxicity, organism-based; details: in vivo
Aspergillus fumigatus [4] = assay: Antifungal activity against Aspergillus fumigatus infected in neutropenic rat assessed as survival of rat at 10 mg/kg/day, ip administered 72 hrs post infection for 10 days; format: functional; details: route intraperitoneal
Rattus norvegicus [5] = assay: Renal toxicity in neutropenic rat assessed as blood urea nitrogen level in serum at 10 mg/kg/day, ip administered 72 hrs post infection for 3 days followed by 4 mg/kg/day, ip for 7 days measured on day 6 after infection (Rvb=4.4+/-0.5 mmol/l); format: organism-based; details: in vivo
Rattus norvegicus [6] = assay: Renal toxicity in neutropenic rat assessed as blood urea nitrogen level in serum at 10 mg/kg/day, ip administered 72 hrs post infection for 10 days measured on day 6 after infection (Rvb=4.4+/-0.5 mmol/l); format: organism-based; set-up: route intraperitoneal; details: in vivo
Rattus norvegicus [7] = assay: Renal toxicity in neutropenic rat assessed as […] in serum at 10 mg/kg/day, ip administered 72 hrs post infection for 10 days measured on day 6 after infection (Rvb=34.8+/-5.8 umol/l); format: organism-based; set-up: route intraperitoneal; details: in vivo
Rattus norvegicus [8] = assay: Hepatotoxicity in neutropenic rat assessed as ALAT level in serum at 10 mg/kg/day, ip administered 72 hrs post infection for 10 days measured on day 13 after infection (Rvb=51.3+/-5.2 U/l); format: toxicity, organism-based; set-up: route intraperitoneal; details: in vivo
Aspergillus fumigatus [9] = assay: Antifungal activity against Aspergillus fumigatus infected in neutropenic rat assessed as survival of rat at 4 mg/kg/day, ip administered 72 hrs post infection for 10 days; format: functional; details: route intraperitoneal
Rattus norvegicus [10] = assay: Hepatotoxicity in neutropenic rat assessed as ALAT level in serum at 10 mg/kg/day, ip administered 72 hrs post infection for 3 days followed by 4 mg/kg/day, ip for 7 days measured on day 13 after infection (Rvb=51.3+/-5.2 U/l); format: toxicity, organism-based; details: in vivo
Rattus norvegicus [11] = assay: Renal toxicity in neutropenic rat assessed as creatine level in serum at 4 mg/kg/day, ip administered 72 hrs post infection for 10 days measured on day 6 after infection (Rvb=34.8+/-5.8 umol/l); format: organism-based; set-up: route intraperitoneal; details: in vivo
Rattus norvegicus [12] = assay: Hepatotoxicity in neutropenic rat assessed as ASAT level in serum at 4 mg/kg/day, ip administered 72 hrs post infection for 10 days measured on day 13 after infection (Rvb=46.6+/-6.1 U/l); format: toxicity, organism-based; set-up: route intraperitoneal; details: in vivo
[13] = AUC in neutropenic rat at 10 mg/kg/day after 3 days; format: ADME, organism-based; details: plasma
Rattus norvegicus [14] = assay: Renal toxicity in neutropenic rat assessed as blood urea nitrogen level in serum at 10 mg/kg/day, ip administered 72 hrs post infection for 3 days followed by 4 mg/kg/day, ip for 7 days measured on day 13 after infection (Rvb=5.8+/-0.4 mmol/l); format: organism-based; details: in vivo
Rattus norvegicus [15] = assay: Renal toxicity in neutropenic rat assessed as creatine level in serum at 10 mg/kg/day, ip administered 72 hrs post infection for 3 days followed by 4 mg/kg/day, ip for 7 days measured on day 6 after infection (Rvb=34.8+/-5.8 umol/l); format: organism-based; details: in vivo
[16] = AUC in neutropenic rat at 10 mg/kg/day for 3 days followed by 4 mg/kg/day for 7 days measured after 10 days; format: ADME, organism-based; details: plasma
Rattus norvegicus [17] = assay: Renal toxicity in neutropenic rat assessed as […] in serum at 10 mg/kg/day, ip administered 72 hrs post infection for 3 days followed by 4 mg/kg/day, ip for 7 days measured on day 13 after infection (Rvb=26.7+/-6.1 umol/l); format: organism-based; details: in vivo
Rattus norvegicus [18] = assay: Renal toxicity in neutropenic rat assessed as blood urea nitrogen level in serum at 4 mg/kg/day, ip administered 72 hrs post infection for 10 days measured on day 13 after infection (Rvb=5.8+/-0.4 mmol/l); format: organism-based; set-up: route intraperitoneal; details: in vivo
Aspergillus fumigatus [19] = assay: Antifungal activity against Aspergillus fumigatus infected in neutropenic rat assessed as survival of rat at 4 mg/kg/day, ip administered 24 hrs post infection for 10 days; format: functional; details: route intraperitoneal
Rattus norvegicus [20] = assay: Hepatotoxicity in neutropenic rat assessed as ASAT level in serum at 4 mg/kg/day, ip administered 72 hrs post infection for 10 days measured on day 6 after infection (Rvb=51.2+/-9.4 U/l); format: toxicity, organism-based; set-up: route intraperitoneal; details: in vivo
Rattus norvegicus [21] = assay: Hepatotoxicity in neutropenic rat assessed as ALAT level in serum at 4 mg/kg/day, ip administered 72 hrs post infection for 10 days measured on day 13 after infection (Rvb=51.3+/-5.2 U/l); format: toxicity, organism-based; set-up: route intraperitoneal; details: in vivo
Aspergillus fumigatus [22] = assay: Antifungal activity against Aspergillus fumigatus by CLSI method; format: functional
Rattus norvegicus [23] = assay: Renal toxicity in neutropenic rat assessed as blood urea nitrogen level in serum at 4 mg/kg/day, ip administered 72 hrs post infection for 10 days measured on day 6 after infection (Rvb=4.4+/-0.5 mmol/l); format: organism-based; set-up: route intraperitoneal; details: in vivo
Aspergillus fumigatus [24] = assay: Antifungal activity against Aspergillus fumigatus infected in neutropenic rat assessed as survival of rat at 4 mg/kg/day, ip administered 16 hrs post infection for 10 days; format: functional; details: route intraperitoneal
Rattus norvegicus [25] = assay: Hepatotoxicity in neutropenic rat assessed as ASAT level in serum at 10 mg/kg/day, ip administered 72 hrs post infection for 3 days followed by 4 mg/kg/day, ip for 7 days measured on day 13 after infection (Rvb=46.6+/-6.1 U/l); format: toxicity, organism-based; details: in vivo
Rattus norvegicus [26] = assay: Renal toxicity in neutropenic rat assessed as creatine level in serum at 4 mg/kg/day, ip administered 72 hrs post infection for 10 days measured on day 13 after infection (Rvb=26.7+/-6.1 umol/l); format: organism-based; set-up: route intraperitoneal; details: in vivo
Rattus norvegicus [27] = assay: Hepatotoxicity in neutropenic rat assessed as ASAT level in serum at 10 mg/kg/day, ip administered 72 hrs post infection for 10 days measured on day 6 after infection (Rvb=51.2+/-9.4 U/l); format: toxicity, organism-based; set-up: route intraperitoneal; details: in vivo
Rattus norvegicus [28] = assay: Renal toxicity in neutropenic rat assessed as creatine level in serum at 10 mg/kg/day, ip administered 72 hrs post infection for 10 days measured on day 13 after infection (Rvb=26.7+/-6.1 umol/l); format: organism-based; set-up: route intraperitoneal; details: in vivo
Rattus norvegicus [29] = assay: Hepatotoxicity in neutropenic rat assessed as ASAT level in serum at 10 mg/kg/day, ip administered 72 hrs post infection for 10 days measured on day 13 after infection (Rvb=46.6+/-6.1 U/l); format: toxicity, organism-based; set-up: route intraperitoneal; details: in vivo
Rattus norvegicus [30] = assay: Hepatotoxicity in neutropenic rat assessed as ALAT level in serum at 10 mg/kg/day, ip administered 72 hrs post infection for 3 days followed by 4 mg/kg/day, ip for 7 days measured on day 6 after infection (Rvb=43.9+/-7.9 U/l); format: toxicity, organism-based; details: in vivo
Aspergillus fumigatus [31] = assay: Antifungal activity against Aspergillus fumigatus by Etest method; format: functional
Rattus norvegicus [32] = assay: Hepatotoxicity in neutropenic rat assessed as ALAT level in serum at 10 mg/kg/day, ip administered 72 hrs post infection for 10 days measured on day 6 after infection (Rvb=43.9+/-7.9 U/l); format: toxicity, organism-based; set-up: route intraperitoneal; details: in vivo

In the case of `CC[C@H](C)C[C@H](C)CCCCCCCCC(=O)N[C@H]1C[C@@H](O)[C@@H](NCCN)NC(=O)[C@@H]2[C@@H](O)CCN2C(=O)[C@H]([C@H](O)CCN)NC(=O)[C@H]([C@H](O)[C@@H](O)c2ccc(O)cc2)NC(=O)[C@@H]2C[C@@H](O)CN2C(=O)[C@H]([C@@H](C)O)NC1=O` [CASPOFUNGIN], the Activity (Rattus norvegicus [1]) was 11.4 mmol/L, the Activity (Rattus norvegicus [2]) was 41.4 U/L and the Activity (Rattus norvegicus [3]) was 49.3 U/L. It also gave an Activity (Aspergillus fumigatus [4]) of 67%, an Activity (Rattus norvegicus [5]) of 5.9 mmol/L and an Activity (Rattus norvegicus [6]) of 10.9 mmol/L. For the same compound, the Activity (Rattus norvegicus [7]) was 42 µmol/L, the Activity (Rattus norvegicus [8]) was 36.4 U/L and the Activity (Aspergillus fumigatus [9]) was 27%. It also gave an Activity (Rattus norvegicus [10]) of 50.5 U/L, an Activity (Rattus norvegicus [11]) of 44.3 µmol/L and an Activity (Rattus norvegicus [12]) of 138.4 U/L. For the same compound, the AUC at 72 h [13] was 549 µg·h/mL, the Activity (Rattus norvegicus [14]) was 6.9 mmol/L and the Activity (Rattus norvegicus [15]) was 36.5 µmol/L. It also gave an AUC at 240 h [16] of 114 µg·h/mL, an Activity (Rattus norvegicus [17]) of 31 µmol/L and an Activity (Rattus norvegicus [18]) of 15.7 mmol/L. For the same compound, the Activity (Aspergillus fumigatus [19]) was 93%, the Activity (Rattus norvegicus [20]) was 118 U/L and the Activity (Rattus norvegicus [21]) was 94.2 U/L. The MIC (Aspergillus fumigatus [22]) was 8 µg/mL (≈ 7.32 µM), the Activity (Rattus norvegicus [23]) was 12.2 mmol/L and the Activity (Aspergillus fumigatus [24]) was 100%. It also gave an Activity (Rattus norvegicus [25]) of 50.2 U/L, an Activity (Rattus norvegicus [26]) of 24 µmol/L and an Activity (Rattus norvegicus [27]) of 113 U/L. For the same compound, the Activity (Rattus norvegicus [28]) was 28.4 µmol/L, the Activity (Rattus norvegicus [29]) was 68 U/L and the Activity (Rattus norvegicus [30]) was 61.6 U/L. The MIC (Aspergillus fumigatus [31]) was 0.05 µg/mL (≈ 0.0457 µM) and the Activity (Rattus norvegicus [32]) was 31.5 U/L.
